From ChEMBL document CHEMBL5390314, “Repurposing Azoles to Resolve Serotogenic Toxicity Associated with Linezolid to Combat Multidrug-Resistant Tuberculosis” (ACS Med Chem Lett, 2023)
Converted amounts (≈) assume the structure as drawn.

Key:
Format in all cases: functional
Settings in all cases: time 7 day
[1] = test system: Mycobacterium tuberculosis; test: Anti-mycobacterial activity against Isoniazid resistant Mycobacterium tuberculosis clinical isolate harbouring inhA mutant assessed as bacterial growth inhibition incubated for 7 days by microplate alamar blue assay
[2] = test system: Mycobacterium tuberculosis; test: Anti-mycobacterial activity against Isoniazid resistant Mycobacterium tuberculosis clinical isolate harbouring katG S315T mutant assessed as bacterial growth inhibition incubated for 7 days by microplate alamar blue assay
[3] = test system: Mycobacterium tuberculosis; test: Anti-mycobacterial activity against Rifampicin resistant Mycobacterium tuberculosis clinical isolate harbouring rpoB S531L mutant assessed as bacterial growth inhibition incubated for 7 days by microplate alamar blue assay
[4] = test system: Mycobacterium tuberculosis; test: Anti-mycobacterial activity against isoniazid, rifampicin, ethambutol and pyrazinamide-resistant Mycobacterium tuberculosis clinical isolate harbouring inhA/katG/rpoB H526D mutant assessed as bacterial growth inhibition incubated for 7 days by microplate alamar blue assay

SMILES	MIC50 [1] [µM]	MIC90 [1] [µM]	MIC50 [2] [µM]	MIC90 [2] [µM]	MIC50 [3] [µM]	MIC90 [3] [µM]	MIC50 [4] [µM]	MIC90 [4] [µM]
Clc1ccccc1C(c1ccccc1)(c1ccccc1)n1ccnc1 [CLOTRIMAZOLE]	0.17 (≈ 0.0586 µg/mL)	0.78 (≈ 0.269 µg/mL)	1.72 (≈ 0.593 µg/mL)	3.12 (≈ 1.08 µg/mL)	1.53 (≈ 0.528 µg/mL)	3.12 (≈ 1.08 µg/mL)	5.07 (≈ 1.75 µg/mL)	6.25 (≈ 2.16 µg/mL)
NNC(=O)c1ccncc1 [ISONIAZID]	0.98 (≈ 0.134 µg/mL)	1.56 (≈ 0.214 µg/mL)	11.06 (≈ 1.52 µg/mL)	12.5 (≈ 1.71 µg/mL)	23.03 (≈ 3.16 µg/mL)	25 (≈ 3.43 µg/mL)	>100	>100
CC(=O)NC[C@H]1CN(c2ccc(N3CCOCC3)c(F)c2)C(=O)O1 [LINEZOLID]	0.12 (≈ 0.0405 µg/mL)	0.39 (≈ 0.132 µg/mL)	0.42 (≈ 0.142 µg/mL)	1.56 (≈ 0.526 µg/mL)	0.24 (≈ 0.081 µg/mL)	0.78 (≈ 0.263 µg/mL)	0.81 (≈ 0.273 µg/mL)	1.56 (≈ 0.526 µg/mL)
Clc1ccc(COC(Cn2ccnc2)c2ccc(Cl)cc2Cl)c(Cl)c1 (stereo not given) [MICONAZOLE]	0.28 (≈ 0.117 µg/mL)	0.78 (≈ 0.325 µg/mL)	3.58 (≈ 1.49 µg/mL)	6.25 (≈ 2.6 µg/mL)	2.74 (≈ 1.14 µg/mL)	6.25 (≈ 2.6 µg/mL)	4.42 (≈ 1.84 µg/mL)	6.25 (≈ 2.6 µg/mL)
CO[C@H]1/C=C/O[C@@]2(C)Oc3c(C)c(O)c4c(O)c(c(/C=N/N5CCN(C)CC5)c(O)c4c3C2=O)NC(=O)/C(C)=C\C=C\[C@H](C)[C@H](O)[C@@H](C)[C@@H](O)[C@@H](C)[C@H](OC(C)=O)[C@@H]1C [RIFAMPIN]	<0.04	<0.04	<0.04	<0.04	28.15 (≈ 23.2 µg/mL)	50 (≈ 41.1 µg/mL)	>100	>100
